Results on 17 molecules are retold here after paper PMC9299485, “4‐Iodopyrimidine Labeling Reveals Nuclear Translocation and Nuclease Activity for Both MIF and MIF2” (Chemistry (Weinheim an Der Bergstrasse, Germany), 2021).

Where two headings read alike, the source gives them in different places.

Assay type in all cases: biochemical
Assay [1] concerns the target T1, MIF2 (Homo sapiens, UniProt P30046).
T1 construct: made in house; host or cells: E. coli BL21(DE3), pET20b(+)
Nature of the assay: MIF2 tautomerase activity inhibition (PP substrate, UV 300 nm). As to the method: 2. Preparation of recombinant MIF and MIF2. […]
Purity of obtained protein was tested by SDS-PAGE and Coomassie staining. […]
(§1) The detailed procedure to produce recombinant human MIF2 was reported in our previous publications.[7] Gene sequences of the human MIF2 gene (Invitrogen) was adapted to bacterial expression. After subcloning into a pET20b(+) expression vector, IPTG-induced expression was performed in E.coli strain BL21(DE3). MIF2 proteins were overproduced overnight and harvested cells were resuspended and sonicated. The soluble fraction was puriﬁed using a Q sepharose column (GE Healthcare) with a gradient of NaCl. The fractions containing MIF2 were brought to 1.7 M ammonium sulfate and loaded on a phenyl sepharose column (GE Healthcare) and eluted with a gradient to 0 M ammonium sulfate in a 20 mM sodium phosphate buffer, pH 8.0. Finally, the proteins were purified by size exclusion chromatography on a Superdex75 column (GE Healthcare) in 20 mM sodium phosphate buffer, pH 8.0, with an elution volume characteristic for trimeric MIF2. The collected protein was concentrated using a VivaSpin centrifugation column with a molecular weight cut off at 5000 D a (Sartorius Stedim Biotech GmbH). Purified proteins were aliquoted, snap frozen in liquid nitrogen, and stored at –80 °C. Purity of obtained protein was tested by SDS-PAGE and coomassie staining. The concentration of protein was determined using the Bradford a ssay.
(§2) 3.1 MIF and MIF2 Inhibition
(§3) The protocol for measuring inhibition of MIF or MIF2 tautomerase enzyme activity was described previously.[5] 500 nM MIF solution (180 µL) or 100 nM MIF2 solution (180 µL) in boric acid buffer ([…], pH 6.2) was mixed with 20 mM EDTA solution (10 µL) in demineralized water. A solution of the desired compound dissolved in DMSO (10 µL) or blank DMSO (10 µL) was added. The resulting mixture was preincubated at room temperature for 10 minutes.
(§4) Subsequently, 50 µL of this mixture was mixed with 50 µL of a 1 mM 4-HPP solution for MIF or 1 mM PP solution for MIF2 in ammonium acetate buffer (50 mM, pH 6.0). Thereafter, MIF or MIF2 tautomerase activity was monitored by measuring the increase of UV absorbance at 306 nm for MIF or 300 nm for MIF2 over time. The MIF or MIF2 tautomerase activity of the mixture with blank DMSO dilution was set to 100% enzyme activity. Noncatalyzed conversion of the substrate in the mixture without MIF or MIF2 was set to 0%. The data acquired from the first 3 minutes of the measurement were used to calculate the initial conversion speed. All experiments were performed in triplicate and data processing was done using the program […]
(§5) Table S1. IC50 values (10 min) and inactivation parameters of synthesized compounds.
(§6) (1 picture or pasted object on this page, not shown here)

For assay [2], the target named is T2, MIF (Homo sapiens, UniProt P14174).
T2 construct: His tag (C); made in house; host or cells: Escherichia coli BL21 (DE3), pET-20b(+)
T2 sequence (P14174 2-115 limits assumed): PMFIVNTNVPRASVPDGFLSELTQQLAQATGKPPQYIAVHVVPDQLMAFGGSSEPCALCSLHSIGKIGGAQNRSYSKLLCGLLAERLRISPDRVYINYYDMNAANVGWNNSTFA
Description: MIF tautomerase activity inhibition (4-HPP substrate, UV 306 nm). The settings on record: for potency relative to corresponding chloro-substituted intermediate: iodo compound vs chloro intermediate. How it is done:
2. Preparation of recombinant MIF and MIF2.
The detailed procedure to produce C-terminal His-tagged recombinant human MIF was reported in our previous publications.[1,4,5] rhMIF was expressed through transforming a pET-20b(+) plasmid containing the target gene into Escherichia coli BL21 (DE3) according to literature procedures.[6] Overexpression was performed and cells were collected and sonicated.
The obtained supernatant was applied to a medium pressure chromatography system (Biologic Duoflow) equipped with a His trap HP (5 mL) column with detection at 280 nm for the eluent.
The column was washed with a binding buffer containing 50 mM Tris and 10% glycerol at pH 7.4 and eluted with elution buffer containing 500 mM imidazole, 50 mM Tris, 10% glycerol at pH 7.4. The pure fractions (as judged by SDS-PAGE) were pooled and subjected to a PD-10 column (GE healthcare) that was equilibrated with PBS buffer at pH 7.4 to remove the high concentration of imidazole. The collected MIF solution was divided into 50 µL aliquots and stored at –80 °C. Purity of obtained protein was tested by SDS-PAGE and Coomassie staining.
The concentration of protein was determined using the Bradford assay.
as §1, §2, §3, §4, §5, §6

Assay [3] has as its target T2, MIF. Nature of the assay: Kitz-Wilson inactivation kinetics on MIF tautomerase. The settings on record: for KI (inactivation) / kinact: Kitz-Wilson analysis, ±SD, n=3; for KI (inactivation): read-out: KI MIF (inhibition constant); for kinact: read-out: kinact MIF (rate of enzyme inactivation) (converted). How it is done:
(§7) In order to derive the kinetic parameters for inactivation of MIFand MIF2, we employed the approach described by Kitz and Wilson. Briefly, four different concentrations of the inhibitor with four different pre-incubation times were selected. The assay conditions are described above with the difference in incubation time.
(§8) For the data analysis, the pre-incubation times for the different concentration of the inhibitor versus the remaining enzyme activity were plotted, so from the linear regression the slope of each concentration of the probe was obtained ( Table S3). Then the 1/slope versus 1/[inhibitor] were plotted (Figure 4) and from the linear regression line ki was derived from the 1/y -intercept and derived from the slope times the ki as described by Kitz and Wilson.
For example, for the probe 8 the equation is: Y = 7,476*X + 5,069
So, the kinact and the KI values are: kinact =1/5,069 =0.20 min-1
(also on this page, place not known: -1 0 1 2 3 0 50 100 log [FM011] (µM) DDT (%) -1 0 1 2 3 0 50 100 log [ZP308] (µM) DDT activity (%) 0.0 0.5 1.0 1.5 2.0 0 50 100 log [ZP307] (µM) DDT activity (%) 1.4 1.6 1.8 2.0 2.2 0 50 100 log [FM031] (µM) DDT activity (%) pre -incubation cond itions pre -incubation activity o f (Table 1/y-intercept) […]
(§9) Table S4. Kinetics studies results.
(§10) Time-dependent inhibition Kitz and Wilson curve […]
ln (MIF tautomerase activity %)
Time-dependent inhibition on MIF Y = 7,476*X + 5,069
Time-dependent inhibition on MIF Y = 12,07*X + 4,234 […]
ln (MIF2 tautomerase activity %)
(§11) Time-dependent inhibition on MIF2 Y = 299,5*X + 11,14 […]

The target in assay [4] is T1, MIF2. Nature of the assay: Kitz-Wilson inactivation kinetics on MIF2 tautomerase. As to conditions: Kitz-Wilson analysis, ±SD, n=3. As to the method: as §7, §8
For example, for the probe 8 the equation is: Y = 7,476*X + 5,069 […]
as §9, §10
ln (MIF tautomerase activity %) […]
as §11

Where [5] appears, read: Table 1, tautomerase activity, mean±SD, n=3, read-out: IC50 MIF2.
Setting [6] is: Table 1, tautomerase activity, mean±SD, n=3, read-out: IC50 MIF.
The mark [7] stands for this setting: Table S1, 10 min, read-out: IC50 (µM) MIF2.
Setting [8] is: Table S1, 10 min, read-out: IC50 (µM) MIF.
The mark [9] stands for this setting: Table 2, 10 min pre-incubation, ±SD, n=3, read-out: IC50 MIF2.
The mark [10] stands for this setting: Table 2, 10 min pre-incubation, ±SD, n=3, read-out: IC50 MIF.

T1 sequence (P30046 2-118 limits assumed): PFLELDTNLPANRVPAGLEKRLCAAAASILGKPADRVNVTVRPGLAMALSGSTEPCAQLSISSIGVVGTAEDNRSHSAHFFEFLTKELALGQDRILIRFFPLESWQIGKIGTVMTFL

For the molecule `Ic1cc(-c2ccccc2)ncn1` [Compound 1, 4‐iodo‐6‐phenylpyrimidine, reference compound], the IC50 (commonly the concentration needed to halve the response being measured) is more than 250 µM at MIF2 [1] (setting [5]) and 4 ± 0.98 µM on MIF [2] (setting [6]). Besides, the “potency relative to corresponding chloro-substituted intermediate” value at MIF [2] (Table S1) was “at least two times more potent”.
In the case of `Clc1cc(-c2ccccc2)ncn1` [Compound 1a], the IC50 at MIF2 [1] (setting [7]) was more than 250 µM; on MIF [2] (setting [8]) it was 16 µM.
For `O=C(O)c1ccc(-c2cc(Cl)ncn2)cc1` [Compound 2a], the IC50 at MIF2 [1] (setting [7]) was more than 250 µM; on MIF [2] (setting [8]), 17 µM.
Regarding `Cc1nc(I)cc(-c2ccc(C(=O)O)cc2)n1` [Compound 3], the IC50 on MIF2 [1] (setting [5]) and at MIF [2] (setting [6]) was more than 250 µM in each case.
With `Cc1nc(Cl)cc(-c2ccc(C(=O)O)cc2)n1` [Compound 3a], the IC50 on MIF2 [1] (setting [7]) stood at 103 µM; at MIF2 [1] (Table S3 dose-inhibition curves (DDT activity), read-out: IC50 MIF2 tautomerase), 107 ± 6 µM; on MIF [2] (setting [8]) it was 95 µM; at MIF [2] (Table S2 dose-inhibition curves, read-out: IC50 MIF tautomerase), 72 ± 17 µM.
On to `O=C(O)c1ccc(-c2cc(I)nc(N3CCOCC3)n2)cc1` [Compound 4], for which the IC50 at MIF2 [1] (setting [5]) is more than 250 µM; on MIF [2] (setting [6]), 15 ± 7.5 µM. Besides, the “potency relative to corresponding chloro-substituted intermediate” value at MIF [2] (Table S1) was “at least two times more potent”.
Consider `O=C(O)c1ccc(-c2cc(Cl)nc(N3CCOCC3)n2)cc1` [Compound 4a], for which the values for the IC50 on MIF2 [1] (setting [7]) and at MIF [2] (setting [8]) were more than 250 µM and 174 µM, respectively.
With `O=C(O)c1ccc(-c2cc(I)nc(-c3ccccc3)n2)cc1` [Compound 5, 4-(6-Iodo-2-phenylpyrimidin-4-yl)benzoic acid], the IC50 at MIF2 [1] (setting [5]) was more than 250 µM; on MIF [2] (setting [6]) it was 59 ± 6.3 µM.
For the molecule `O=C(O)c1ccc(-c2cc(Cl)nc(-c3ccccc3)n2)cc1` [Compound 5a, 4-(6-Chloro-2-phenylpyrimidin-4-yl)benzoic acid], the values for the IC50 on MIF2 [1] (setting [7]) and on MIF [2] (setting [8]) were 85 µM and 36 µM, respectively.
In the case of `Cc1c(I)ncnc1-c1ccc(C(=O)O)cc1` [Compound 6, 4-(6-Iodo-5-methylpyrimidin-4-yl)benzoic acid], the IC50 was more than 250 µM at MIF2 [1] (setting [5]) and 56 ± 12 µM on MIF [2] (setting [6]). Further, the “potency relative to corresponding chloro-substituted intermediate” value at MIF [2] (Table S1) is on record as “at least two times more potent”.
In the case of `Cc1c(Cl)ncnc1-c1ccc(C(=O)O)cc1` [Compound 6a, 4-(6-Chloro-5-methylpyrimidin-4-yl)benzoic acid], the IC50 on MIF2 [1] (setting [7]) and at MIF [2] (setting [8]) was more than 250 µM in each case.
On to `O=[N+]([O-])c1ccc(-c2cc(I)ncn2)cc1` [Compound 7, 4-Iodo-6-(4-nitrophenyl)pyrimidine], for which the IC50 is more than 250 µM on MIF2 [1] (setting [5]), more than 250 µM at MIF2 [1] (setting [9]), 0.63 ± 0.06 µM at MIF [2] (setting [6]) and 0.63 ± 0.06 µM on MIF [2] (setting [10]). Further, the KI (inactivation) on MIF [3] amounted to 3.9 ± 0.7 µM. Further, on MIF [3], the kinact (in general, the maximal first-order rate at which the target is inactivated) was 0.00467 s⁻¹. The “selectivity for MIF over MIF2” value at MIF [2] (from tautomerase IC50 values) is given as more than 400 fold. Also, the “potency relative to corresponding chloro-substituted intermediate” value at MIF [2] (Table S1) is “at least two times more potent”.
For the molecule `O=[N+]([O-])c1ccc(-c2cc(Cl)ncn2)cc1` [Compound 7a, 4-Chloro-6-(4-nitrophenyl)pyrimidine], the IC50 is more than 250 µM at MIF2 [1] (setting [7]) and 1.4 µM at MIF [2] (setting [8]).
The like results for `Nc1ccc(-c2cc(Cl)ncn2)cc1` [Compound 8a, 4-(6-Chloropyrimidin-4-yl)aniline] were, in that order, 83 µM and 1.7 µM.
As to `O=C(CCCC[C@@H]1SC[C@@H]2NC(=O)N[C@@H]21)NCCNC(=O)c1ccc(-c2cc(I)ncn2)cc1` [Compound 9], the “improvement of potency for MIF2 inhibition compared to parental inhibitor 2” value at MIF2 [1] is 2–6 factor. For the same molecule, the IC50 was 78 ± 7.7 µM on MIF2 [1] (setting [9]); 0.24 ± 0.05 µM on MIF [2] (setting [10]); approximately 0.2 µM at MIF [2] (approximate, read-out: IC50 on MIF). Further, the “kinact MIF2 (rate of enzyme inactivation)” value on MIF2 [4] came out at 0.061 ± 0.010 min⁻¹. The figures for the KI (inactivation) at MIF2 [4] (read-out: KI MIF2 (inhibition constant)) and at MIF [3] were 85 ± 8.6 µM and 2.8 ± 0.67 µM, respectively. Besides, the figures for the kinact on MIF2 [4] (read-out: kinact MIF2 (rate of enzyme inactivation)) and at MIF [3] were 0.001 to 0.0015 s⁻¹ and 0.004 s⁻¹, respectively. Besides, the “KI on MIF relative to IC50” value on MIF [3] (KI higher than IC50) was “about 10 times”.
For `CC(C)c1nc(I)cc(-c2ccc(C(=O)O)cc2)n1` [Compound 11, 4-(6-Iodo-2-isopropylpyrimidin-4-yl)benzoic acid], the values for the IC50 at MIF2 [1] (setting [7]) and at MIF [2] (setting [8]) were more than 250 µM and 112 µM, respectively.
The like results for `CC(C)c1nc(Cl)cc(-c2ccc(C(=O)O)cc2)n1` [Compound 11a, 4-(6-Chloro-2-isopropylpyrimidin-4-yl)benzoic acid] were, in that order, more than 250 µM and more than 250 µM.
